The values below come from patent publication US7153535B2, “Protein sweetener” (Wisconsin Alumni Research Foundation, priority 2002, dated 2006).

One data set relates to humans. Nature of the data set: human panel sweetness scoring on a labeled magnitude scale. The data set is classed as in vivo. Conditions: 100 ug/ml of the protein in water; monkey and human test panels. As to the method:
(§1) To test the sweetness potency of SEQ ID NOS. 3 and 5, we tested the perception of sweetness using a concentration of 100 ug/ml of the protein in water. One test panel consisted of monkeys. The other test panel was of humans. The response measured in the monkeys was level of activity of taste nerve fibers during the stimulation of the tongue with different compounds being tested. Humans were requested to score the sweetness sensations of the stimuli with a magnitude labeled scale in accordance with the techniques of B. Green et al., 21 Chemical Senses 323 (1996) (e.g. barely detectable; weak; moderate; strong; very strong; strongest imaginable).

In data set [1] the test system is taste fibers predominantly responsive to sweeteners (S fibers) in the Chorda Tympani (CT) nerves. The data set is described as follows: taste nerve fiber recordings during stimulation of the tongue. The conditions noted are these: fiber nerve recordings from rhesus monkey Chorda Tympani nerves, FIG. 4. The data set is classed as in vivo. As to the method: as §1
We used rhesus monkey nerves as an animal model to test primate taste responses to sweet proteins. […] The triangle markings on FIG. 4 indicate exposure timing.

The conditions of data set [2]: level of heat typically present during baking of foods; cited from earlier work.

As to “D29K: Brazzein variant in which the Asp at position 29 is replaced with Lys (DKCKKVYENYPVSKCQLANQCNYDCKLKKHARSGECFYDEKRNLQCICDYCEY)”, the “sweetness relative to recombinantly produced wild type (des-pGlul)” value in the data set with humans lay in the range of 3 to 4 times.

Take “Glu36Ala: comparative Brazzein variant with Glu at position 36 replaced by Ala (QDKCKKVYENYPVSKCQLANQCNYDCKLDKHARSGACFYDEKRNLQCICDYCEY; UniProt P56552 1-54, looked up, variant E36A)”: the “nerve response recording profile compared with sucrose” value in data set [1] is “more distinct”.

“Brazzein: sweet protein; SEQ ID NO: 1 is natural Brazzein minus the beginning Glu, recombinantly produced wild type (DKCKKVYENYPVSKCQLANQCNYDCKLDKHARSGECFYDEKRNLQCICDYCEY; listed as Pentadiplandra brazzeana)”: in data set [1], the “nerve response recording profile compared with sucrose” value is “more distinct”. Moreover, the stability to heat entry in data set [2] was “stable”.

Regarding “D29N: Brazzein variant in which the Asp at position 29 is replaced with Asn (DKCKKVYENYPVSKCQLANQCNYDCKLNKHARSGECFYDEKRNLQCICDYCEY)”, in the data set on humans, the “sweetness relative to recombinantly produced wild type (des-pGlul)” value lay within 3 to 4 times. Further, the “nerve response recording profile compared with sucrose” value in data set [1] is “remarkably close to that of sucrose”.
